Measurements: paper PMC4790851, “Iminosugars Inhibit Dengue Virus Production via Inhibition of ER Alpha-Glucosidases—Not Glycolipid Processing Enzymes” (PLoS Neglected Tropical Diseases, 2016)
Read-outs that look alike come from different tables or passages of the source.

Columns and labels:
DENV = system: DENV; parameters: method as in PMID 23070155, PMID 23376501, PMID 22020302, PMID 22867971; conditions: post-exposure therapeutic administration; cited from earlier work
dengue infection = system: dengue infection; parameters: method as in PMID 24877997, PMID 12355369; conditions: oral, 400 mg loading dose then 200 mg/dose b.i.d.; cited from earlier work
Glucosyltransferase HL60 = molecular target: T1, Glucosyltransferase HL60 (Homo sapiens, UniProt Q16739); experiment: In vitro enzyme inhibition; assay type: biochemical; conditions: glucosyltransferase isolated from HL60 human promyelocytic cell line; read-out: IC50
T1 construct: endogenous in cells; host or cells: HL60
T1 sequence (Q16739 1-394): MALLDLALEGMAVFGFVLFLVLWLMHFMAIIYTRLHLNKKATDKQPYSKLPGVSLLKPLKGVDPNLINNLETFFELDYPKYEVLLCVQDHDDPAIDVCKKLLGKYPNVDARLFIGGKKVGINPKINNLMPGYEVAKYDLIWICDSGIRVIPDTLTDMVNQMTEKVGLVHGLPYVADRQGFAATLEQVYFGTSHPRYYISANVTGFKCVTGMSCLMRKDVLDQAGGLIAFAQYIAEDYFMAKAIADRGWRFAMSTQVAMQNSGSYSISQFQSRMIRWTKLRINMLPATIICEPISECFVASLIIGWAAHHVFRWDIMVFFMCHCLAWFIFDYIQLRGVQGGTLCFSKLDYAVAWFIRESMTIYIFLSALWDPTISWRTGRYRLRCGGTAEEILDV

DENV2 strain 16681 [1] = experiment: Infectious virus (plaque assay) and total virus (qRT-PCR for DENV RNA) secreted from infected MDMΦs; assay type: cell-based, dengue virus serotype 2; conditions: serial dilution, 48 h post-infection, normalized to untreated
Description: (§1) MDMΦ were infected with DENV2 16681 diluted to a multiplicity of infection (MOI) of 1 in X-VIVO10 without supplements for 90 minutes (20°C, with rocking). Upon removal of virus, fresh MDMΦ growth medium without IL-4 but containing serial dilutions of drug or control was placed on the cells, and cells were incubated for 48 hours (37°C, 5% CO2). For collection of infectious virus, supernatant was harvested and centrifuged for 5 minutes (room temperature, 400 x g) to pellet any cells/debris, and supernatants were aliquoted and stored at -80°C until analysis by plaque assay. […]
Virus titres for samples from human MDMΦ and C6/36 infections were obtained by LLC-MK2 plaque assays as per previous descriptions. […] A second-overlay containing nutrients, low-melting point tissue culture-grade agarose, and neutral red stain [33] was added and allowed to solidify at 20°C before further incubation for 1 day (37°C, 5% CO2) after which plaques were counted by eye. […]
DENV RNA in cell culture supernatants was isolated according to the manufacturer’s protocol for Direct-zol RNA MiniPrep Kit (Zymo Research) and assayed by reverse transcription-real time polymerase chain reaction (qRT-PCR) on an Applied Biosystems 7500 real-time PCR system (Life Technologies). […] Samples were read in technical duplicate and compared to a standard curve generated from high-titer viral RNA isolated from C6/36-grown DENV2. […]

DENV2 strain 16681 [2] = experiment: In vitro antiviral assay: infectious DENV titer from infected MDMΦs by LLC-MK2 plaque assay; assay type: cell-based, dengue virus serotype 2
[3] = system: lysosomal β-N-acetylhexosaminidase; experiment: Free oligosaccharide analysis in MDMΦs: hexosaminidase-related FOS; assay type: cell-based, human; conditions: MNTD, 48 h
Description: as §1, with “assay. In the case of FOS and GSL assays where MDMΦ were uninfected, treatments were essentially as above except that no virus was added and cells were washed three times with sterile PBS after 24 or 48 hours as per sample time point.” for “assay.”
MDMΦ FOS were detected as previously described by Alonzi et al.. […] Glycans were separated by normal phase-high performance liquid chromatography (NP-HPLC), and peak area was used to assess molar quantity in comparison to standards of known identity and quantity. […] Absorbance values (Axxx) at 595 nm and 420 nm were measured, and the ratio of A595 to A420 was used to determine protein concentration in comparison to a serially diluted standard of bovine serum albumin.

[4] = Dengue virus, DENV2, LLC-MK2, 48 h, MDMΦs infected with DENV2 MOI 1, drug 48 h, infectious titer by plaque assay, table values with 95% confidence interval in parentheses, read-out: EC50

## CCCC(=O)O[C@H]1CN2CC[C@H](O)[C@@H]2[C@@H](O)[C@@H]1O [Celgosivir, 6-O-butanoyl-castanospermine]
DENV
  protection in lethal mouse models of DENV infection: protection in lethal mouse models
Dengue infection
  reduction in viral load or fever burden in patients: failed to demonstrate reduction in viral load or fever burden
Glucosyltransferase HL60
  IC50: > 1000 µM
DENV2 strain 16681 [1]
  infectious virus and total virus secreted: reduces infectious virus (solid lines) and total virus (dashed lines) secreted in a one-to-one ratio
DENV2 strain 16681 [2]; [4]
  EC50: 5 µM
DENV2 strain 16681 [2]; EC50 parent / EC50 derivative, parent DNJ or castanospermine
  Enhancement (fold improvement of antiviral EC50 versus parent compound): 7 fold
DENV2 strain 16681 [2]; MDMΦs infected with DENV2 MOI 1, drug 48 h, infectious titer by plaque assay, table values with 95% confidence interval in parentheses, read-out: EC50
  EC50: 5.17 µM

## CCCCN1C[C@H](O)[C@@H](O)[C@H](O)[C@H]1CO [NB-DNJ, N-butyl-DNJ]
DENV
  protection in lethal mouse models of DENV infection: protection in lethal mouse models
DENV2 strain 16681 [1]
  infectious virus and total virus secreted: reduces infectious virus (solid lines) and total virus (dashed lines) secreted in a one-to-one ratio
DENV2 strain 16681 [2]; [4]
  EC50: 10.6 µM
DENV2 strain 16681 [2]; Dengue virus, DENV2, LLC-MK2, 48 h, MDMΦs, DENV2, 48 h, read-out: 95% CI for antiviral EC50
  EC50: 7.77 to 14.5 µM

## CCCCCCCCCN1C[C@H](O)[C@@H](O)[C@@H](O)[C@H]1CO [NN-DGJ]
[3]
  FOS generated by inhibition of lysosomal β-N-acetylhexosaminidase: do produce FOS generated by inhibition of lysosomal β-N-acetylhexosaminidase

## CCCCN1C[C@H](O)[C@@H](O)[C@@H](O)[C@H]1CO [NB-DGJ]
[3]
  FOS generated by inhibition of lysosomal β-N-acetylhexosaminidase: do produce FOS generated by inhibition of lysosomal β-N-acetylhexosaminidase
